Assay [1] deals with T1, recombinant CREBBP bromodomain (Homo sapiens, UniProt Q92793).
T1 construct: recombinant CREBBP bromodomain obtained from BPS Bioscience, USA; purchased BPS Bioscience, USA
The experiment in a line: CBP TR-FRET displacement assay. Format: binding. The settings on record: for IC50: dose-response, read-out: IC50 (group A, B, C). Put shortly:
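CREBBP bromodomain (50 nM) preincubated 30 min at room temperature with 500 nM biotinylated ligand in HEPES pH 7.5 buffer with TCEP, then 60 min with compound. Eu-anti-His/APC-streptavidin TR-FRET 665/615 nm ratio read; IC50 from sigmoidal dose-response fit.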
Background: In TR-FRET formats the signal depends on donor and acceptor labels being close together.

Assay [2] concerns the target T2, recombinant BRD4 FL bromodomain (Homo sapiens, UniProt O60885).
T2 construct: fused on or other part: 6xHis tag, inferred from detection with Mab ANTI 6HIS-XL665
As to the kind of experiment: BRD4 FL TR-FRET displacement assay. The conditions noted are these: for IC50: dose-response, read-out: IC50 (group A, B, C); for inhibition at 10 µM: read-out: % Inhibition (10 μM). Format: binding. As to the method:
The potency of compounds to inhibit BRD4 FL enzyme was tested in a TR-FRET displacement assay using recombinant BRD4 FL bromodomain obtained In-house. The assay buffer was 50 mM HEPES (pH 7.5), 50 mM NaCl, 500 μM CHAPS. 10 nM of BRD4 FL & 300 nM of Biotinylated Acetyl histone H4 (Lys 5, 8, 12, 16) (Millipore, USA) was incubated at room temperature for 30 minutes, the reaction was initiated by adding the pre-incubated enzyme ligand mixture to the test compounds. After 30 min incubation, the reaction was stopped by the addition of stop mix containing 1 nM of Europium Streptavidin cryptate (Cisbio, USA) and 5 nM of Mab ANTI 6HIS-XL665 (Cisbio, USA) dilutes in assay buffer containing 2.4M Potassium Fluoride. Fluorescence emission of the samples at 665 and 615 nm were measured at an excitation of 340 nm and their ratio was plotted against the compound concentrations to generate dose-response curve. The percent inhibition of the test compounds is calculated using the ratio of enzyme activity controls.
Selected compounds of the present invention were screened in the above-mentioned assay procedures and IC50 values were determined by fitting the dose-response data to sigmoidal curve fitting equation using Graph pad prism software V7.

What is called IC50 is the concentration that gives 50% inhibition. By inhibition is commonly meant how much of the control response was suppressed.

Read-outs that look alike come from different tables or passages of the source.

T1 sequence (Q92793 1085-1192 limits assumed): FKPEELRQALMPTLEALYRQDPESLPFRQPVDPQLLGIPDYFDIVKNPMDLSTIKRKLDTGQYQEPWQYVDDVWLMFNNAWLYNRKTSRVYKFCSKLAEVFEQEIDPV

Turning to `CONC(=O)COc1cc(N2CCN(C)c3cc(-c4cnn(C)c4)ccc32)c2cc(C)c(=O)n(C)c2c1` [Example 73, 2-((1,3-Dimethyl-5-(4-methyl-6-(1-methyl-1H-pyrazol-4-yl)-3,4-dihydroquinoxalin-1(2H)-yl)-2-oxo-1,2-dihydroquinolin-7-yl)oxy)-N-methoxyacetamide], the values for the concentration for half-maximal inhibition (IC50) in assay [1] and in assay [2] (BRD4 FL) were less than 50 nM and 2010 to 5000 nM, respectively.
`COc1cc(N2CCN(C3CC3)c3ccc(S(N)(=O)=O)cc32)c2cc(C)c(=O)n(C)c2c1` [Example 96]: the concentration for half-maximal inhibition (IC50) was 51 to 100 nM in assay [1] and 2010 to 5000 nM in assay [2] (BRD4 FL).
As for `COc1cc(N2CCN(C)c3ccc(CC(=O)NO)cc32)c2cc(C)c(=O)n(C)c2c1` [Example 83, N-hydroxy-2-(4-(7-methoxy-1,3-dimethyl-2-oxo-1,2-dihydroquinolin-5-yl)-1-methyl-1,2,3,4-tetrahydroquinoxalin-6-yl)acetamide], the IC50 in assay [1] is greater than 10 nM; in assay [2] (BRD4 FL), 2010 to 5000 nM.
`Cc1cc2c(N3CCN(C)c4cc(F)c(S(N)(=O)=O)cc43)cccc2n(C)c1=O` [Example 87]: the concentration for half-maximal inhibition (IC50) in assay [1] is 51 to 100 nM; in assay [2] (BRD4 FL) it was 2010 to 5000 nM.
Regarding `CCOC(=O)CN1CCN(c2cc(OC)cc3c2cc(C)c(=O)n3C)c2cc(C#N)c(-c3cnn(C)c3)cc21` [Example 66, Ethyl 2-(6-cyano-4-(7-methoxy-1,3-dimethyl-2-oxo-1,2-dihydroquinolin-5-yl)-7-(1-methyl-1H-pyrazol-4-yl)-3,4-dihydroquinoxalin-1(2H)-yl)acetate], the IC50 in assay [1] was less than 50 nM; in assay [2] (BRD4 FL) it was 2010 to 5000 nM.
Regarding `CC(=O)N1CCN(c2cc(N3CCOCC3)cc3c2cc(C)c(=O)n3C)c2cnc(-c3cnn(C)c3)cc21` [Example 162, 5-(1-Acetyl-7-(1-methyl-1H-pyrazol-4-yl)-2,3-dihydropyrido[3,4-b]pyrazin-4(1H)-yl)-1,3-dimethyl-7-morpholinoquinolin-2(1H)-one], the figures for the concentration for half-maximal inhibition (IC50) in assay [1] and in assay [2] (BRD4 FL) were less than 50 nM and 2010 to 5000 nM, respectively.
For the molecule `Cc1cc2c(N3CCN(C)c4cc(-c5cnn(C)c5)ncc43)cc(C(C)C)cc2n(C)c1=O` [Example 151, 7-Isopropyl-1,3-dimethyl-5-(1-methyl-7-(1-methyl-1H-pyrazol-4-yl)-2,3-dihydropyrido[3,4-b]pyrazin-4(1H)-yl)quinolin-2(1H)-one], the IC50 in assay [1] lay within 51 to 100 nM. Besides, the inhibition at 10 µM in assay [2] (BRD4 FL, compound at 10 μM) came to 49%.
On to `Cc1cc2c(N3CCN(C)c4cc(F)c(S(N)(=O)=O)cc43)cc(N3CCOCC3)cc2n(C)c1=O` [Example 88], for which the half-maximal inhibitory concentration (IC50) in assay [1] is less than 50 nM; in assay [2] (BRD4 FL), 2010 to 5000 nM.
Turning to `Cc1cc2c(N3CCCc4cc(-c5cnn(C)c5)c(C(F)F)cc43)nc(N3CC4CCC(C3)O4)cc2n(C)c1=O` [Example 217], the half-inhibitory concentration (IC50) in assay [1] is less than 50 nM. The inhibition at 10 µM in assay [2] (BRD4 FL, compound at 10 μM) worked out at 46%.
As for `COc1cc(N2CCN(C)c3cc(N4CCC(C)(N)CC4)c(C#N)cc32)c2cc(C)c(=O)n(C)c2c1` [Example 29], the 50% inhibitory concentration (IC50) is less than 50 nM in assay [1] and 2010 to 5000 nM in assay [2] (BRD4 FL).
As to `COc1cc(N2CCN(C)c3ccc(S(=O)(=O)NC(=O)C(F)(F)F)cc32)c2cc(C)c(=O)n(C)c2c1` [Example 107], in assay [1], the IC50 lay in the range of 51 to 100 nM. Also, the inhibition at 10 µM in assay [2] (BRD4 FL, compound at 10 μM) came out at 15%.
Consider `COc1cc(N2CCCc3cc(N4CCN(C(C)=O)CC4)ncc32)c2cc(C)c(=O)n(C)c2c1` [Example 166, 5-(6-(4-Acetylpiperazin-1-yl)-3,4-dihydro-1,7-naphthyridin-1(2H)-yl)-7-methoxy-1,3-dimethylquinolin-2(1H)-one], for which the IC50 is 51 to 100 nM in assay [1] and 2010 to 5000 nM in assay [2] (BRD4 FL).
Take `COc1cc(N2CCCc3cc(-c4cnn(C)c4)ncc32)c2cc(C)c(=O)n(C)c2c1` [Example 167]: the half-inhibitory concentration (IC50) in assay [1] is less than 50 nM; in assay [2] (BRD4 FL), 2010 to 5000 nM.
For `COc1cc2c(cc(C)c(=O)n2C)c(N2CCCc3cc(-c4cnn(C)c4)c(C(F)F)cc32)n1` [Example 233, 5-(7-(Difluoromethyl)-6-(1-methyl-1H-pyrazol-4-yl)-3,4-dihydroquinolin-1(2H)-yl)-7-methoxy-1,3-dimethyl-1,6-naphthyridin-2(1H)-one], the half-inhibitory concentration (IC50) in assay [1] was in the range of 51 to 100 nM; in assay [2] (BRD4 FL), 2010 to 5000 nM.
Regarding `Cc1cc2c(N3CCN(CC(=O)O)c4cc(-c5cnn(C)c5)ncc43)cc(N3CCOCC3)cc2n(C)c1=O` [Example 164, 2-(4-(1,3-Dimethyl-7-morpholino-2-oxo-1,2-dihydroquinolin-5-yl)-7-(1-methyl-1H-pyrazol-4-yl)-3,4-dihydropyrido[3,4-b]pyrazin-1(2H)-yl)acetic acid], the half-inhibitory concentration (IC50) in assay [1] was 51 to 100 nM. For the same molecule, in assay [2] (BRD4 FL, compound at 10 μM), the inhibition at 10 µM came out at 38%.
For the molecule `Cc1cc2c(N3CCN(C)c4cc(-c5cnn(C)c5)ncc43)cccc2n(C)c1=O` [Example 131], the IC50 in assay [1] was greater than 10 nM. In assay [2] (BRD4 FL, compound at 10 μM), the inhibition at 10 µM amounted to 52%.
Consider `Cc1cc2c(N3CCNc4cc(-c5cnn(C)c5)ncc43)cc(N3CCOCC3)cc2n(C)c1=O` [Example 161, 1,3-Dimethyl-5-(7-(1-methyl-1H-pyrazol-4-yl)-2,3-dihydropyrido[3,4-b]pyrazin-4(1H)-yl)-7-morpholinoquinolin-2(1H)-one], for which the IC50 in assay [1] is greater than 10 nM. Also, the inhibition at 10 µM in assay [2] (BRD4 FL, compound at 10 μM) amounted to 16%.
Turning to `COc1cc(N2CCN(C)c3ccc(S(C)(=O)=O)cc32)c2cc(C)c(=O)n(C)c2c1` [Example 100], the IC50 in assay [1] lay within 51 to 100 nM; in assay [2] (BRD4 FL), 2010 to 5000 nM.
Taken in the same sequence, the figures for `Cc1cc2c(N3CCN(C)c4ccc(C#N)cc43)cc(OCC(=O)O)cc2n(C)c1=O` [Example 82, 2-((5-(7-Cyano-4-methyl-3,4-dihydroquinoxalin-1(2H)-yl)-1,3-dimethyl-2-oxo-1,2-dihydroquinolin-7-yl)oxy)acetic acid] were 51 to 100 nM and 2010 to 5000 nM.
On to `Cc1cc2c(N3CCCc4cc(-c5nnn(C)n5)c(C(F)F)cc43)nc(N3CCOCC3)cc2n(C)c1=O` [Example 226], for which the IC50 in assay [1] was in the range of 51 to 100 nM; in assay [2] (BRD4 FL), 2010 to 5000 nM.
In the case of `CNC(=O)CN1CCN(c2cc(N3CCOCC3)cc3c2cc(C)c(=O)n3C)c2cnc(-c3cnn(C)c3)cc21` [Example 165, 2-(4-(1,3-Dimethyl-7-morpholino-2-oxo-1,2-dihydroquinolin-5-yl)-7-(1-methyl-1H-pyrazol-4-yl)-3,4-dihydropyrido[3,4-b]pyrazin-1(2H)-yl)-N-methylacetamide], in assay [1], the IC50 is less than 50 nM. For the same molecule, the inhibition at 10 µM in assay [2] (BRD4 FL, compound at 10 μM) was determined as 51%.
On to `CCn1c(=O)c(C)cc2c(N3CCN(C)c4cc(-c5cnn(C)c5)c(C#N)cc43)cccc21` [Example 46], for which, in assay [1] (compound at 10 μM), the inhibition at 10 µM was 98%. The values for the 50% inhibitory concentration (IC50) in assay [1] and in assay [2] (BRD4 FL) were greater than 10 nM and 2010 to 5000 nM, respectively.
Turning to `CC1Cc2c(cc(N3CC[C@@H](O)C3)cc2N2CCCc3cc(-c4cnn(C)c4)c(C(F)F)cc32)N(C)C1=O` (stereo partly drawn) [Example 193, 7-(Difluoromethyl)-7′-((R)-3-hydroxypyrrolidin-1-yl)-1′,3′-dimethyl-6-(1-methyl-1H-pyrazol-4-yl)-3,3′,4,4′-tetrahydro-2H-[1,5′-biquinolin]-2′(1′H)-one], the results for the IC50 in assay [1] and in assay [2] (BRD4 FL) were greater than 10 nM and 2010 to 5000 nM, respectively.
Take `CNC(=O)C1CCN(c2cc3c(cc2C#N)N(c2cc(OC)cc4c2cc(C)c(=O)n4C)CCN3C)CC1` [Example 26]: the IC50 in assay [1] is less than 50 nM. The inhibition at 10 µM in assay [2] (BRD4 FL, compound at 10 μM) is 24%.
As for `Cc1cc2c(N3CCN(C)c4cc(-c5cnn(C)c5)ncc43)cc(N3CC(C)OC(C)C3)cc2n(C)c1=O` (stereo not shown) [Example 132], the half-inhibitory concentration (IC50) in assay [1] is less than 50 nM; in assay [2] (BRD4 FL), 2010 to 5000 nM.
For `Cc1cc2c(N3CCN(C)c4ccc(S(N)(=O)=O)cc43)cccc2n(C)c1=O` [Example 85, 4-(1,3-dimethyl-2-oxo-1,2-dihydroquinolin-5-yl)-1-methyl-1,2,3,4-tetrahydroquinoxaline-6-sulfonamide], in that order: 51 to 100 nM and 2010 to 5000 nM.
Take `COc1ccc(CN2CCN(c3cc(N4CCOCC4)cc4c3cc(C)c(=O)n4C)c3cnc(-c4cnn(C)c4)cc32)cc1` [Example 135]: the concentration for half-maximal inhibition (IC50) in assay [1] was 51 to 100 nM; in assay [2] (BRD4 FL) it was 2010 to 5000 nM.
Take `Cc1cc2c(N3CCN(C)c4cc(-c5cnn(C)c5)ncc43)cc(OC(C)C)cc2n(C)c1=O` [Example 156, 7-Isopropoxy-1,3-dimethyl-5-(1-methyl-7-(1-methyl-1H-pyrazol-4-yl)-2,3-dihydropyrido[3,4-b]pyrazin-4(1H)-yl)quinolin-2(1H)-one]: the concentration for half-maximal inhibition (IC50) in assay [1] was in the range of 51 to 100 nM. For the same molecule, the inhibition at 10 µM in assay [2] was 47%.
With `CNC(=O)N1CCN(c2cc(OC)cc3c2cc(C)c(=O)n3C)c2cc(C#N)c(-c3cnn(C)c3)cc21` [Example 65, 6-Cyano-4-(7-methoxy-1,3-dimethyl-2-oxo-1,2-dihydroquinolin-5-yl)-N-methyl-7-(1-methyl-1H-pyrazol-4-yl)-3,4-dihydroquinoxaline-1(2H)-carboxamide], the IC50 in assay [1] is less than 50 nM; in assay [2] (BRD4 FL) it was 2010 to 5000 nM.
In the case of `Cc1cc2c(N3CCCc4ccc(C(F)F)cc43)nc(N3CCC(O)C3)cc2n(C)c1=O` (stereo not shown) [Example 230], the IC50 in assay [1] was greater than 10 nM. For the same molecule, in assay [2] (BRD4 FL, compound at 10 μM), the inhibition at 10 µM came to 21%.

The values above are taken from patent US20230322724A1, “HETEROCYCLIC COMPOUNDS AS CBP/EP300 BROMODOMAIN INHIBITORS” (AURIGENE ONCOLOGY LIMITED, priority 2020, published 2023).
